Legend:
[1] = system: primary human lung fibroblasts; test: Inhibition of type I collagen secretion by primary human lung fibroblasts, western blot of cellular medium; assay type: cell-based; conditions: two days; for secretion of type I collagen polypeptides COLα1(I) and COLα2(I) into the cellular medium: western blot
Protocol: Several chemical compounds were identified in this screen and tested for their ability to inhibit collagen production by primary human lung fibroblasts in culture. Lung fibroblasts are responsible for development of lung fibrosis. The compounds were added in a single dose of 100 μM to the lung fibroblasts, except compound 60D17, which was added at 10 μM. Two days after the addition of the compounds, the secretion of type I collagen into the cellular medium was analyzed by western blot. Both polypeptides which form type I collagen, COLα1(I) and COLα2(I), were analyzed.
Here, COLα1 represents the α1 polypeptide of type I collagen, COLα2 represents the α2 polypeptide of type I collagen, and FIB represents fibronectin, which was the control.

[2] = system: lung fibroblasts; test: Type I collagen expression of lung fibroblasts at therapeutic (nM) concentrations, western blot; assay type: cell-based, human
Protocol: In lung fibrosis the process of excessive collagen accumulation is similar to the liver, but the cells responsible for collagen synthesis are lung fibroblasts. Therefore, I tested the potency of 60D17 at therapeutic concentrations in lung fibroblasts before 60D17 was tested at higher concentrations in these cells.
Lane 4 represents untreated control cells.

[3] = system: collagen synthesis; conditions: cited from earlier work
[4] = Initial animal studies, tolerability in rats; assay type: in vivo
[5] = system: hepatic stellate cells (HSCs); test: Inhibition of collagen α1(I) polypeptide synthesis in cultured hepatic stellate cells (HSCs), western blot; assay type: cell-based, rat; conditions: added at day 3, measured at day 7
Description: HSCs are liver cells responsible for collagen synthesis in hepatic fibrosis. […] In fibrotic livers, HSCs increase type I collagen expression 50-100 fold. Similar changes can be reproduced when HSCs are isolated from rat livers and cultured in vitro.
Three days after isolation and culturing, the HSCs still retain their quiescent phenotype and show little collagen expression. At day 5 after isolation the first significant increase in collagen expression becomes evident. After 7-8 days of culturing type I collagen expression increases 50-100 fold and attains its maximal level.
I used this model to test the efficacy of 60D17 in inhibiting collagen expression, because it is relevant to liver fibrosis. 60D17 was added at 100 nM and 250 nM concentrations to HSCs at day 3 in the culture. The cells were cultured until day 7 and the level of collagen α1(I) polypeptide was measured by western blot.
Lane 1 contained untreated cells. Lane 2 contained HSCs treated with 250 nM of 60D17. Lane 3 contained HSCs treated with 100 nM of 60D17. The panel on the left represents the cellular levels of collagen α1(I) polypeptide measured by western blot. Actin (ACT) was used as the loading control. The right panel represents the collagen α1(I) polypeptide level in the cellular medium.

[6] = system: rat liver slices; test: Collagen expression in precision cut rat liver slices, western blot; assay type: cell-based; conditions: 1 μM, 4 days, four slices
Protocol: In these experiments 60D17 was added to four different slices (lanes 2-5) […] at 1 μM concentration. The expression of both collagen α1(I) polypeptide, resolved here as procollagen (PRO-COLL1A1), and processed mature collagen (COLL 1A1) were measured by western blot. Lanes 1 and 6 were untreated control. Actin (ACT) was used as the loading control.
Precision cut liver slices were prepared from rat liver with a thickness of 350 μm and diameter of 8 mm. These slices were cultured in vitro for several days. Cutting the liver represents an injury thereto. In response to this injury, the slices initiate profibrotic changes. The response is similar to the fibrotic response of the intact organ, because the slices retain all different cell types and proper architecture of the organ. Thus, they mimic fibrosis initiation of the whole liver. Accordingly, this is a useful model to test the efficacy of 60D17 in blocking the profibrotic reaction.

CCSc1nnc2c(n1)OC(c1ccncc1)=Nc1ccccc1-2 [67C17]
antifibrotic activity (collagen production by human lung fibroblasts, FIG. 1) ([1]; single dose of 100 μM): posses antifibrotic activity
secretion of type I collagen polypeptides COLα1(I) and COLα2(I) into the cellular medium ([1]; single dose of 100 μM): reduced α2 polypeptide more than α1 polypeptide

Cc1cccn2c(=O)c3cc(C(=O)N4CCN(c5ccccc5)CC4)n(C)c3nc12 [13B8]
antifibrotic activity (collagen production by human lung fibroblasts, FIG. 1) ([1]; single dose of 100 μM): posses antifibrotic activity
secretion of type I collagen polypeptides COLα1(I) and COLα2(I) into the cellular medium ([1]; single dose of 100 μM): reduced production of α1(I) polypeptide more than that of α2 polypeptide

CN(C)c1cccc(-c2nn3c(-c4ccccn4)nnc3s2)c1 [60M4]
antifibrotic activity (collagen production by human lung fibroblasts, FIG. 1) ([1]; single dose of 100 μM): posses antifibrotic activity
secretion of type I collagen polypeptides COLα1(I) and COLα2(I) into the cellular medium ([1]; single dose of 100 μM): reduced α2 polypeptide more than α1 polypeptide

Cn1c(C(=O)Nc2ccccc2)cc2c(=O)n3ccccc3nc21 [60D17-G]
synthesis of type I collagen ([2]; nM concentrations, cells not given): interfered with the synthesis of type I collagen at nM concentrations

CC(CCO)Nc1nc2c(c(=O)n(C)c(=O)n2C)n1Cc1ccccc1F (stereo not drawn) [65N3]
antifibrotic activity (collagen production by human lung fibroblasts, FIG. 1) ([1]; single dose of 100 μM): posses antifibrotic activity
secretion of type I collagen polypeptides COLα1(I) and COLα2(I) into the cellular medium ([1]; single dose of 100 μM): dramatically reduced excretion of both collagen polypeptides

COc1ccc(N2CCOCC2)c(NC(=O)C(C)(C)C)c1 [45I22]
antifibrotic activity (collagen production by human lung fibroblasts, FIG. 1) ([1]; single dose of 100 μM): posses antifibrotic activity
secretion of type I collagen polypeptides COLα1(I) and COLα2(I) into the cellular medium ([1]; single dose of 100 μM): dramatically reduced excretion of both collagen polypeptides

CCN1CCCC1CNC(=O)c1ccc(S(=O)(=O)N2CCOCC2)cc1 (stereo not drawn) [57N21]
antifibrotic activity (collagen production by human lung fibroblasts, FIG. 1) ([1]; single dose of 100 μM): posses antifibrotic activity
secretion of type I collagen polypeptides COLα1(I) and COLα2(I) into the cellular medium ([1]; single dose of 100 μM): reduced production of α1(I) polypeptide more than that of α2 polypeptide

COC(=O)c1ccc2c3c([nH]c2c1)CCCC3 [13F20]
antifibrotic activity (collagen production by human lung fibroblasts, FIG. 1) ([1]; single dose of 100 μM): posses antifibrotic activity
secretion of type I collagen polypeptides COLα1(I) and COLα2(I) into the cellular medium ([1]; single dose of 100 μM): dramatically reduced excretion of both collagen polypeptides

NCc1ccc(N2CCOCC2)cc1 [1E10]
antifibrotic activity (collagen production by human lung fibroblasts, FIG. 1) ([1]; single dose of 100 μM): posses antifibrotic activity
secretion of type I collagen polypeptides COLα1(I) and COLα2(I) into the cellular medium ([1]; single dose of 100 μM): dramatically reduced excretion of both collagen polypeptides

COC(=O)CNC(=O)c1cc2c(=O)n3cccc(C)c3nc2n1C [60J13]
antifibrotic activity (collagen production by human lung fibroblasts, FIG. 1) ([1]; single dose of 100 μM): posses antifibrotic activity
secretion of type I collagen polypeptides COLα1(I) and COLα2(I) into the cellular medium ([1]; single dose of 100 μM): dramatically reduced excretion of both collagen polypeptides

O=S(=O)(c1cccc2ccccc12)N1CCCNCC1 [ML-7]
collagen synthesis [3]: interferes with collagen synthesis

Cc1cc(C)nc(-n2nc(-c3ccc4ccccc4c3)cc2O)n1 [45F6]
antifibrotic activity (collagen production by human lung fibroblasts, FIG. 1) ([1]; single dose of 100 μM): posses antifibrotic activity
secretion of type I collagen polypeptides COLα1(I) and COLα2(I) into the cellular medium ([1]; single dose of 100 μM): dramatically reduced excretion of both collagen polypeptides

Cc1cc(C)nc(-n2[nH]c3nccc(-c4ccc5ccccc5c4)c3c2=O)n1 [49L20]
antifibrotic activity (collagen production by human lung fibroblasts, FIG. 1) ([1]; single dose of 100 μM): posses antifibrotic activity
secretion of type I collagen polypeptides COLα1(I) and COLα2(I) into the cellular medium ([1]; single dose of 100 μM): reduced production of α1(I) polypeptide more than that of α2 polypeptide

Cc1cccn2c(=O)c3cc(C(=O)Nc4cccnc4)n(C)c3nc12 [60D17]
tolerability in rats [4]: well tolerated
antifibrotic activity (collagen production by human lung fibroblasts, FIG. 1) ([1]; single dose of 10 μM): posses antifibrotic activity
secretion of type I collagen polypeptides COLα1(I) and COLα2(I) into the cellular medium ([1]; single dose of 10 μM): dramatically reduced excretion of both collagen polypeptides
type I collagen expression ([2]; 50 nM): substantially ineffective
synthesis of collagen α1(I) polypeptide ([2]; 100 nM): smaller effect
synthesis of collagen α2(I) polypeptide ([2]; 100 nM): dramatically inhibited synthesis of collagen α2(I) polypeptide
production of both polypeptides comprising type I collagen ([2]; 500 nM, 18 h): almost completely inhibited
collagen α1(I) polypeptide expression in HSCs ([5]; 100 nM): significantly inhibited collagen production
collagen α1(I) polypeptide expression in HSCs ([5]; 250 nM): almost completely blocked the increase in collagen expression
expression of collagen α1(I) polypeptide in rat liver slices [6]: significantly inhibited expression of collagen α1(I) polypeptide

O=c1c2oc3cccc4c3n(c=2c(=O)c2ccccc12)CCC4 [11M14]
antifibrotic activity (collagen production by human lung fibroblasts, FIG. 1) ([1]; single dose of 100 μM): posses antifibrotic activity
secretion of type I collagen polypeptides COLα1(I) and COLα2(I) into the cellular medium ([1]; single dose of 100 μM): reduced production of α1(I) polypeptide more than that of α2 polypeptide
